Tested on: not listed separately
Assay: Bioabsorption, Caco cell model
Assay type: in vitro ADME
Conditions: human, Caco-2; Caco cell model; read-out: Apparent partition coefficient Papp (according to Lit. Hilgers)
Text: (§1) The bioabsorption of the compounds of the formula I can be examined using the Caco cell model (A. R. Hilgers et al., Caco-2 cell monolayers as a model for drug transport across the intestinal mucosa, Pharm. Res. 1990, 7, 902).
(§2) Below is a bioabsorption measurement for a reference compound: […]
For O=C1[C@H](CC[C@H](O)c2ccc(F)cc2)[C@@H](c2ccc(O)cc2)N1c1ccc(F)cc1 [Ezetimibe], the Papp was 4.88 ×10⁻⁶ cm/s.

Tested on: Caco-2 cell monolayers
Assay: Bioabsorption, Caco cell model
Assay type: in vitro ADME
Conditions: estimated from Caco cell model
Text: as §1, §2
With O=C1[C@H](CC[C@H](O)c2ccc(F)cc2)[C@@H](c2ccc(O)cc2)N1c1ccc(F)cc1 [Ezetimibe] the Estimated human bioabsorption was 100%.

Tested on: cholesterol absorption
Assay: Cholesterol absorption test: uptake of 14C-cholesterol by the liver
Assay type: in vivo, mouse
Conditions: dose at which the uptake of 14C-cholesterol by the liver is halved (50%), based on a control group; test substance given immediately prior to peroral test meal; liver after 24 h
Text: Effect on Cholesterol Absorption +^3H-Taurocholic Acid Excretion Using Fecal Excrement of Mice, Rats or Hamsters
NMRI mice, Wistar rats, or Golden Syrian hamsters (in groups of n=4-6) are kept in metabolic cages, where they are fed with a standard diet (Altromin, Lage (Lippe)). The afternoon prior to the administration of the radioactive tracers (^14C-cholesterol), the feed is removed and the animals are adapted to grates.
Additionally, the animals are labeled s.c. with ^3H-TCA (taurocholic acid) (for example 1 μCi/mouse up to 5 μCi/rat) 24 hours prior to the peroral administration of the test meal (^14C-cholesterol in Intralipid® 20, Pharmacia-Upjohn).
Cholesterol absorption test: 0.25 ml/mouse Intralipid® (Pharmacia-Upjohn) ((spiked with 0.25 μCi of ^14C-cholesterol in 0.1 mg of cholesterol) is administered perorally by gavage.
Test substances are prepared separately in 0.5% methylcellulose (Sigma)/5% Solutol (BASF, Ludwigshafen) or a suitable vehicle.
The administration volume of the test substance is 0.5 ml/mouse. The test substance is administered immediately prior to the test meal (Intralipid labeled with ^14C-cholesterol) (cholesterol absorption test).
The feces are collected over a period of 24 h: fecal elimination of ^14C-cholesterol and ^3H-taurocholic acid (TCA) is determined after 24 hours.
The livers are removed and homogenized, and aliquots are incinerated in an oximate (Model 307, Packard) to determine the amount of ^14C-cholesterol which had been taken up/absorbed.
The amount of ^14C-cholesterol taken up by the liver is based on the administered dose. The ED50 values are interpolated from a dose-effect curve as the dose at which the uptake of ^14C-cholesterol by the liver is halved (50%), based on a control group.
In the case of COc1ccc(C2C(CCC(O)c3ccc(F)cc3)C(=O)N2c2ccc(CNC(=O)CCCCCCCCCCCNC(=O)C(O)C(O)C(O)C(O)CO)cc2)cc1 (stereo not drawn) [III, N-4-[3-[3-(4-Fluorophenyl)-3-hydroxypropyl]-2-(4-methoxyphenyl)-4-oxoazetidin-1-yl]benzyl-12-(2,3,4,5,6-pentahydroxyhexanoylamino)dodecanamide], the “ED50 (liver)” value is reported as 0.003 mg/mouse. In the case of COc1ccc(C2C(CCC(O)c3ccc(F)cc3)C(=O)N2c2ccc(CNC(=O)CCCCN(Cc3ccccc3)CC(O)C(O)C(O)C(O)CO)cc2)cc1.O=C(O)C(F)(F)F (stereo not drawn) [Example XVIII, Benzyl-(4-{4-[3-[3-(4-fluorophenyl)-3-hydroxypropyl]-2-(4-methoxyphenyl)-4-oxoazetidin-1-yl]benzylcarbamoyl}butyl)-(2,3,4,5,6-pentahydroxyhexyl)ammonium trifluoroacetate], the “ED50 (liver)” value is reported as 1.0 mg/mouse. For C[N+](C)(C)CCCCCOc1ccc(C2C(CCC(O)c3ccc(F)cc3)C(=O)N2c2ccc(F)cc2)cc1.[Br-] (stereo not drawn) [XXIV, [5-(4-{1-(4-Fluorophenyl)-3-[3-(4-fluorophenyl)-3-hydroxypropyl]-4-oxoazetidin-2-yl}phenoxy)pentyl]trimethylammonium bromide], the “ED50 (liver)” value was 0.3 mg/mouse. With C[N+](C)(C)CCCC(=O)NCc1ccc(C2C(CCC(O)c3ccc(F)cc3)C(=O)N2c2ccc(F)cc2)cc1.O=C([O-])C(F)(F)F (stereo not drawn) [Example XV, [3-(4-{1-(4-Fluorophenyl)-3-[3-(4-fluorophenyl)-3-hydroxypropyl]-4-oxoazetidin-2-yl}benzylcarbamoyl)propyl]trimethylammonium trifluoroacetate] the “ED50 (liver)” value was 0.01 mg/mouse. With COc1ccc(C2C(CCC(O)c3ccc(F)cc3)C(=O)N2c2ccc(CNC(C)=O)cc2)cc1 (stereo not drawn) [Example XX, N-{4-[3-[3-(4-Fluorophenyl)-3-hydroxypropyl]-2-(4-methoxyphenyl)-4-oxoazetidin-1-yl]benzyl}acetamide] the “ED50 (liver)” value was 0.03 mg/mouse. In the case of CN(CCOCCOCCOc1ccc(C2C(CCC(O)c3ccc(F)cc3)C(=O)N2c2ccc(F)cc2)cc1)CC(O)C(O)C(O)C(O)CO (stereo not drawn) [Example XXX, 1-(4-Fluorophenyl)-3-[3-(4-fluorophenyl)-3-hydroxypropyl]-4-{4-[2-(2-{2-[methyl-(2,3,4,5,6-pentahydroxyhexyl)amino]ethoxy}ethoxy)ethoxy]phenyl}azetidin-2-one], the “ED50 (liver)” value is reported as 0.1 mg/mouse. With O=C(COCCOCC(=O)NCc1ccc(C2C(CCC(O)c3ccc(F)cc3)C(=O)N2c2ccc(F)cc2)cc1)NCCOCCOCC(=O)C(O)C(O)C(O)C(O)CO (stereo not drawn) [XIII, N-(4-{1-(4-Fluorophenyl)-3-[3-(4-fluorophenyl)-3-hydroxypropyl]-4-oxoazetidin-2-yl}-benzyl)-2-[2-({2-[2-(3,4,5,6,7-pentahydroxy-2-oxoheptyloxy)ethoxy]-ethylcarbamoyl}-methoxy)ethoxy]acetamide] the “ED50 (liver)” value was 0.3 mg/mouse. For O=C(NCc1ccc(C2C(CCC(O)c3ccc(F)cc3)C(=O)N2c2ccc(F)cc2)cc1)C(O)C(O)C(O)C(O)CO (stereo not drawn) [Example II], the “ED50 (liver)” value was 0.1 mg/mouse. For CN(CCCCOc1ccc(C2C(CCC(O)c3ccc(F)cc3)C(=O)N2c2ccc(F)cc2)cc1)CC(O)C(O)C(O)C(O)CO (stereo not drawn) [XXV, 1-(4-Fluorophenyl)-3-[3-(4-fluorophenyl)-3-hydroxypropyl]-4-(4-{4-[methyl-(2,3,4,5,6-pentahydroxyhexyl)amino]butoxy}phenyl)azetidin-2-one], the “ED50 (liver)” value was 0.3 mg/mouse. In the case of C[N+](C)(C)CCCCC(NC(=O)OCC1c2ccccc2-c2ccccc21)C(=O)NCc1ccc(C2C(CCC(O)c3ccc(F)cc3)C(=O)N2c2ccc(F)cc2)cc1.[Cl-] (stereo not drawn) [Example XXI], the “ED50 (liver)” value is reported as 1.0 mg/mouse.

— patent US20050267038A1, “Novel diphenylazetidinones, process for their preparation, medicaments comprising these compounds and their use” (Aventis Pharma Deutschland GmbH, priority 2000, published 2005)
